Our source for the IC50 values is ChEMBL document CHEMBL1141324, “Saponins from the roots of Nylandtia spinosa” (J Nat Prod, 2007).

One assay deals with HT-29. Put plainly: Cytotoxicity against human HT29 cells by MTT assay. Format: functional, cell-based.
For a further assay, the system named is HCT-116. In words: Cytotoxicity against human HCT116 cells by MTT assay. It is filed as functional, cell-based.

In brackets after ≈: the same amount, converted by molar mass. Some results are limits rather than exact numbers.

In the case of `C[C@@H]1O[C@H](OC(=O)[C@]23CCC(C)(C)CC2C2=CCC4[C@@]5(C)C[C@H](O)[C@H](O[C@@H]6O[C@H](CO)[C@@H](O)[C@H](O)[C@H]6O)[C@@](C)(C(=O)O)[C@@H]5CC[C@@]4(C)[C@]2(CO)CC3)[C@@H](O[C@H]2O[C@H](C)[C@@H](O[C@@H]3OC[C@@H](O)[C@H](O[C@@H]4OC[C@](O)(CO)[C@H]4O)[C@H]3O)[C@H](O)[C@@H]2O)[C@H](O)[C@@H]1O` (stereo not given in full), the IC50 with HT-29 and with HCT-116 was more than 5 µg/mL each time.
With `CC(=O)O[C@H]1C(=O)[C@@]2(C)[C@H]([C@H](OC(=O)c3ccccc3)[C@]3(O)C[C@H](OC(=O)[C@H](O)[C@@H](NC(=O)c4ccccc4)c4ccccc4)C(C)=C1C3(C)C)[C@]1(OC(C)=O)CO[C@@H]1C[C@@H]2O` [PACLITAXEL], the IC50 with HT-29 is 0.0053 µg/mL (≈ 0.00621 µM); in the assay with HCT-116, 0.008 µg/mL (≈ 0.00937 µM).
Turning to `C[C@@H]1O[C@H](OC(=O)[C@]23CCC(C)(C)CC2C2=CCC4[C@@]5(C)C[C@H](O)[C@H](O[C@@H]6O[C@H](CO)[C@@H](O)[C@H](O)[C@H]6O)[C@@](C)(C(=O)O)[C@@H]5CC[C@@]4(C)[C@]2(CO)CC3)[C@@H](O[C@H]2O[C@H](C)[C@@H](O[C@@H]3OC[C@@H](O[C@@H]4OC[C@](O)(CO)[C@H]4O)[C@H](O)[C@H]3O[C@H]3O[C@@H](CO)[C@@H](O)[C@@H](O)[C@@H]3O)[C@H](O)[C@@H]2O)[C@H](O)[C@@H]1O` (stereo not given in full), the IC50 with HT-29 and in the assay with HCT-116 was more than 5 µg/mL each time.
Regarding `C[C@@H]1O[C@H](OC(=O)[C@]23CCC(C)(C)CC2C2=CCC4[C@@]5(C)C[C@H](O)[C@H](O[C@@H]6O[C@H](CO)[C@@H](O)[C@H](O)[C@H]6O)[C@@](C)(C(=O)O)[C@@H]5CC[C@@]4(C)[C@]2(CO)CC3)[C@@H](O[C@H]2O[C@H](C)[C@@H](O[C@@H]3OC[C@@H](O[C@@H]4O[C@H](CO)[C@H](O)[C@H](O)[C@H]4O)[C@H](O[C@@H]4OC[C@H](O)[C@H](O)[C@H]4O)[C@H]3O)[C@H](O)[C@@H]2O)[C@H](O)[C@@H]1O` (stereo not given in full), the IC50 with HT-29 and in the assay on HCT-116 was more than 5 µg/mL throughout.
Take `C[C@@H]1O[C@H](OC(=O)[C@]23CCC(C)(C)CC2C2=CCC4[C@@]5(C)C[C@H](O)[C@H](O[C@@H]6O[C@H](CO)[C@@H](O)[C@H](O)[C@H]6O)[C@@](C)(C(=O)O)[C@@H]5CC[C@@]4(C)[C@]2(CO)CC3)[C@@H](O[C@H]2O[C@H](C)[C@@H](O[C@@H]3OC[C@@H](O[C@@H]4O[C@H](CO)[C@H](O)[C@H](O)[C@H]4O)[C@H](O[C@@H]4OC[C@H](O)[C@H](O)[C@H]4O)[C@H]3O)[C@H](O[C@@H]3OC[C@](O)(CO)[C@H]3O)[C@@H]2O)[C@H](O)[C@@H]1O` (stereo not given in full): the IC50 in the assay on HT-29 and in the assay with HCT-116 was more than 5 µg/mL throughout.
